Laboratory results published in publication PMC6628362, “A New Strategy for Glioblastoma Treatment: In Vitro and In Vivo Preclinical Characterization of Si306, a Pyrazolo[3,4-d]Pyrimidine Dual Src/P-Glycoprotein Inhibitor” (Cancers, 2019).
Where “and” joins values, the source holds several entries; their conditions need not be identical. Equal entries are not always repeated. Marks after values point to notes of the source that are not given here. One block for each compound: values may come before it.

Key:
U87 = assay: MTT cell growth inhibition, U87; format: cell-based, Human; settings: 72 h, n = 3
Experimental: (§1) Human GBM cell lines U87 and LN-229 were purchased from the American Type Culture Collection, Rockville, MD, USA. U87-TxR cells were selected from U87 cells by continuous exposure to increasing concentrations of PTX [76]. LN-299, U87 and U87-TxR cells were grown in Minimum Essential Medium with 10% fetal bovine serum, 2 mM L-glutamine and 5000 U/mL penicillin, 5 mg/mL streptomycin solution. Cell lines were maintained at 37 °C in a humidified 5% CO2 atmosphere. They were sub-cultured at 72 h intervals using 0.25% trypsin/EDTA and 16,000 cells/cm^2 were seeded into a fresh medium.
(§2) MTT assay was used to assess the viability of U87 and U87-TxR cells (AppliChem GmbH, Taufkirchen, Germany). After reaching the confluence in 25 cm^2 tissue flasks, U87 and U87-TxR cells were trypsinized. Cells were seeded at the optimal density determined in initial experiments: 4000 cell/well into flat-bottomed 96-well tissue culture plates. Following the overnight incubation, cells were treated with Si306, pro-Si306 and dasatinib (1–25 µM) for 72 h. In addition, the combined effects of Si306 and pro-Si306 with PTX were evaluated in MDR GBM cells. To that end, two concentrations of Si306 and pro-Si306 (0.2 μM and 0.5 μM) were combined with increasing concentrations of PTX (0.1–2 μM) in simultaneous treatment. The sensitization of U87-TxR cells to PTX was studied after 72 h. Briefly, MTT was added to each well in a final concentration of 0.2 mg/mL for 4 h to induce the formation of the formazan in cells with intact/viable mitochondria. Then, produced formazan was dissolved in DMSO, and the absorbance was measured at 540 nm on a microplate reader (LKB 5060-006 Micro Plate Reader, Vienna, Austria). IC50 values were calculated by nonlinear regression analysis using GraphPad Prism 6.0 for Windows (GraphPad Software, La Jolla, CA, USA).

U87-TxR = assay: MTT cell growth inhibition, MDR U87-TxR; format: cell-based, Human; settings: 72 h, n = 3
Experimental: as §1, §2

LN-229 = assay: MTT cell growth inhibition, LN-229; format: cell-based, Human; settings: LN-229, MTT, n = 3
P-gp [1] = assay: Flow-cytometric analysis of P-glycoprotein expression in U87-TxR cells; format: cell-based, Human; settings: 5 µM, 72 h, flow cytometry
Experimental: To assess the P-glycoprotein expression level in MDR GBM cells, flow-cytometry was employed. U87-TxR cells seeded in adherent 6-well plates were treated with 5 µM Si306, pro-Si306 or dasatinib for 72 h. Then, cells were collected by trypsinization, washed in PBS, and then directly immuno-stained by FITC-conjugated anti-P-gp antibody (BD Biosciences, Winnersh, Berkshire, UK). To discriminate the level of background fluorescence, an isotype control IgG2bκ (Abcam, Cambridge, United Kingdom) was used. The fluorescence of FITC-conjugated anti-P-gp was analyzed on assessed on the fluorescence channel 1 (FL1) of the CyFlow Space Partec flow-cytometer (Sysmex Partec GmbH, Görlitz, Germany). After gating to exclude the cell debris and dead cells, a minimum of 10,000 cells per sample was assayed. Summit Dako Software was used for the analyses of results obtained by flow-cytometry.

MCF-7/Adr [2] = tested on: MCF-7/Adr; set-up: method as in PMID 25482933; settings: read-out: IC50 cell growth; cited from earlier work
MCF-7/Adr [3] = tested on: MCF-7/Adr; set-up: method as in PMID 25482933; settings: 0.5 μM dasatinib, 72 h; cited from earlier work
[4] = set-up: method as in PMID 17429625; settings: mice; cited from earlier work
P-gp [5] = biological target: P-gp (Homo sapiens, UniProt P08183); assay: Rho 123 accumulation assay (P-gp inhibition) in U87-TxR cells; settings: 30 min; for P-gp activity (Rho 123 intracellular accumulation): 5 µM; for IC50: IC50 of P-gp inhibition, Rho 123 accumulation
P-gp (Homo sapiens, UniProt P08183), sequence (P08183 whole entry): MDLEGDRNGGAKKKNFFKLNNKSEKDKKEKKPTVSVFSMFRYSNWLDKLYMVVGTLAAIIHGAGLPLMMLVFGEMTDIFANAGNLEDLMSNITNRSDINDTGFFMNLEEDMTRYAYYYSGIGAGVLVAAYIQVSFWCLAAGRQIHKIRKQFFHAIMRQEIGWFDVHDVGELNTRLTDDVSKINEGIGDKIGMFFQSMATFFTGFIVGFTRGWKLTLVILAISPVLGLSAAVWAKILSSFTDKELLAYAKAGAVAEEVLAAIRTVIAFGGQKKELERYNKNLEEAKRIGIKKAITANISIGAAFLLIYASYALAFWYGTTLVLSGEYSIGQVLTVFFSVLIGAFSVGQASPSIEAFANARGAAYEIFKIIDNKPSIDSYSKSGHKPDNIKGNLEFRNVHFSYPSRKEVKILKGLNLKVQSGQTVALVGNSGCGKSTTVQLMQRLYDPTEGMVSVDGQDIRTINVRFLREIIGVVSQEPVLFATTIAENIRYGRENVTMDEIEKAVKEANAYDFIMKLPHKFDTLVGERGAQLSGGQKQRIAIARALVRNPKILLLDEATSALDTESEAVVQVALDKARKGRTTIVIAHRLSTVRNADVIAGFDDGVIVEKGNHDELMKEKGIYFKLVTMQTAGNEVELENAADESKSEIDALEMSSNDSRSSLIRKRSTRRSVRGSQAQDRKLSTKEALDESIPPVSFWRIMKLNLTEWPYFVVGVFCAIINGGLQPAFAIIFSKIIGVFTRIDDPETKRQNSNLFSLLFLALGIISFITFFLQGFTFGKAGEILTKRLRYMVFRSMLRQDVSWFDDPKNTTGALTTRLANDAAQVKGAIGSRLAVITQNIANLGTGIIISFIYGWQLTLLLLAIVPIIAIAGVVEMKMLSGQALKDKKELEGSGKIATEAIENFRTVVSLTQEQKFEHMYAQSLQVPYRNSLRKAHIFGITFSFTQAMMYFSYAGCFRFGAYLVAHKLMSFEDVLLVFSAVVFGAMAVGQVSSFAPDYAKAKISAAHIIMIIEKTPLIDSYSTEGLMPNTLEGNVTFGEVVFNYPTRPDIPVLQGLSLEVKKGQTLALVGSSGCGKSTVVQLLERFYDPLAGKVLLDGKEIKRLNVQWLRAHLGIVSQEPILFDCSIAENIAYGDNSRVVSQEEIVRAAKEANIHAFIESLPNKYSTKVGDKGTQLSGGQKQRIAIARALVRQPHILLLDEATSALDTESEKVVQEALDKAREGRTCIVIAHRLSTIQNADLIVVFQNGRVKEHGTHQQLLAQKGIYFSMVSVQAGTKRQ
Experimental: At the end of the accumulation period, the cells were pelleted by centrifugation, washed with PBS and placed in cold PBS. The samples were kept on ice in a dark setting until the analysis on CyFlow Space Partec flow-cytometer (Sysmex Partec GmbH, Germany). […] A minimum of 10,000 events was assayed for each sample and the obtained results were analyzed using Summit Dako Software (ver. 4.3, Fort Collins, CO, USA).

U87-TxR cells = assay: Reversal of paclitaxel resistance, MTT combination treatment; format: cell-based, Human; settings: 72 h
Experimental: as §2

BT-138 = assay: Cell viability, BT-138 (Table S1); format: cell-based; settings: BT-138, 24 h
Experimental: 1. Cell Growth Inhibition by Dasatinib, Si306 and Pro-Si306
GB cell lines BT138, T98G and A172 were treated with Si306 and pro-Si306 at concentrations ranging from 1 to 100 µM, or with DMSO as a control. Cell viability was evaluated 72 h after treatment for T98G and A172 cell lines and after 24 h for BT-138. In table S1 the IC50 values are reported.
Table S1. Sensitivity of glioblastoma multiforme (GBM) cells to Si306 and pro-Si306 expressed as IC50 […]
Figure S1. Rho 123 accumulation in U87-TxR cells treated with increasing concentrations of TQ (A), Dex-VER (B), Si306 (C) and pro-Si306 (D).
(1 picture or pasted object on this page, not shown here)

CYP3A4 = biological target: T1, CYP3A4 (Homo sapiens, UniProt P08684); assay: CYP3A4 inhibition in human liver microsomes (testosterone 6β-hydroxylation); format: in vitro ADME
T1 construct: Incubations were carried out in a mix containing human liver microsomes (1 mg/mL of protein); from tissue; host or cells: human liver microsomes
T1 sequence (P08684 whole entry): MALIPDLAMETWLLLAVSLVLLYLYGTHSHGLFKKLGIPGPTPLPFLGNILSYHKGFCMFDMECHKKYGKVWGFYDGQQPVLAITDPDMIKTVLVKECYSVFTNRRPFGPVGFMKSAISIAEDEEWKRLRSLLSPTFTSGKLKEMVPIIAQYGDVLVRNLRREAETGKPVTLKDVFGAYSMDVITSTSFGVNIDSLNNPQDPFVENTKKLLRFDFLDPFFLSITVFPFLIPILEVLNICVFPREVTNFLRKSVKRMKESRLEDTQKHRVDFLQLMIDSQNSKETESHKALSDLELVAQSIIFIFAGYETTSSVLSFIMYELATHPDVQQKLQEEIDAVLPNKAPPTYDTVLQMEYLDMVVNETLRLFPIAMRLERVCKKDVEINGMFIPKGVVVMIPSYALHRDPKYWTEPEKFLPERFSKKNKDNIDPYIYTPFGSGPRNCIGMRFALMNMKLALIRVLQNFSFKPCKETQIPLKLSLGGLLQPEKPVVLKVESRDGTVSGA
Experimental: The inhibition of cytochrome P450 3A4 isoform by Si306 and pro-Si306 was measured by determining its activity on the substrate testosterone.
The activity of CYP3A4 was evaluated by measuring the 6β-hydroxylated testosterone formation (CYP3A4-specific reaction). The amount of 6β-hydroxylated metabolite was assessed in the absence and presence of Si306, pro-Si306 and ketoconazole (testosterone concentration of 100 μM in phosphate buffer 0.025 M, pH 7.4). […] Ketoconazole was used as standard selective inhibitor of CYP3A4 isoenzyme. Incubations were carried out in a mix containing human liver microsomes (1 mg/mL of protein) in phosphate buffer 0.025 M, pH 7.4, NADPH (200 μM) previously solubilized in a MgCl2 48 mM solution. The final incubation volume was 0.25 mL. After a 40 min-incubation period at 37 °C, the reaction was stopped by adding 1 mL of acetonitrile in the presence of corticosterone 2 μM as internal standard. The samples were centrifuged for 20 min at 5000 rpm. Concentrations of testosterone and its metabolite 6β-hydroxytestosterone were assessed by the HPLC method with UV detection. Calibration curve for quantitative analysis of 6β-hydroxytestosterone in the samples was obtained using commercial 6β-hydroxytestosterone purchased from Sigma Aldrich. For the statistical analysis, GraphPad InStat 3.0 (GraphPad Software, San Diego, CA, USA) was used.

[6] = biological target: Human Serum Albumin (HSA) (Homo sapiens, UniProt P02768); assay: Binding fluorimetric assay, HSA; format: in vitro ADME; settings: 10 µM HSA, fluorescence quenching
Human Serum Albumin (HSA), sequence (P02768 25-609): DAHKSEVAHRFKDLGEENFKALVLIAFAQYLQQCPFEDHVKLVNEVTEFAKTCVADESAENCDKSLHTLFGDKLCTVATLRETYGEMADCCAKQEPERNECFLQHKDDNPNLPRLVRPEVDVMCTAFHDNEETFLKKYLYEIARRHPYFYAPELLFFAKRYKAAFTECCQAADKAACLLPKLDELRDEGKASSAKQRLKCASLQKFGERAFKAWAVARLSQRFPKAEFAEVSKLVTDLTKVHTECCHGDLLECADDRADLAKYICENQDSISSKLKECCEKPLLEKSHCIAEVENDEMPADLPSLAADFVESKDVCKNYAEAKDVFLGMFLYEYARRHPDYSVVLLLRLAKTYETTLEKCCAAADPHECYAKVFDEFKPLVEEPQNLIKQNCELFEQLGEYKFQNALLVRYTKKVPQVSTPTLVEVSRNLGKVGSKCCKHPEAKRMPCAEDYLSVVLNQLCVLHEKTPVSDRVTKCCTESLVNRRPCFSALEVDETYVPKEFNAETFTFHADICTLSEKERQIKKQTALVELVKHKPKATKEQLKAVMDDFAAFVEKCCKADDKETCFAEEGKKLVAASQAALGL
Experimental: (§3) In order to determine the binding affinity for Si306 and pro-Si306 to HSA (human serum albumin) and AGP (alpha-1-acid glycoprotein), the protein fluorescence has been monitored by spectroscopy. The quantitative analysis was performed using black 96 multiwell plates: in each well, a fixed concentration of HSA or AGP (10 µM in phosphate buffer 1 mM) was added with different amounts of the tested compound (0.1 µM to 500 µM). Plates were gently shacked and after 30 min at room temperature for equilibration, spectra were recorded from 300 to 400 nm, after excitation at 295 nm, by using a Perkin Elmer EnVision Multilabel Reader 2014 spectrofluorimeter. Finally, spectra were acquired with EnVision Manager ver.1.13 software (Walthman, MA, USA). The obtained non fluorescence quenching percentages were plotted against drug concentrations and the relative KD values were calculated using GraphPad software (version 6.0).

[7] = tested on: Alpha-1-acid glycoprotein (AGP); assay: Binding fluorimetric assay, AGP; format: in vitro ADME; settings: 10 µM AGP, fluorescence quenching
Experimental: as §3

[8] = set-up: method as in PMID 28650650; settings: cited from earlier work
[9] = set-up: method as in PMID 28650650; settings: pro-Si306 administrated p.o.; cited from earlier work

SMILES: Cc1nc(Nc2ncc(C(=O)Nc3c(C)cccc3Cl)s2)cc(N2CCN(CCO)CC2)n1 [Dasatinib, dasatinib, reference compound]
IC50 (U87): 6.14 ± 0.464 µM
IC50 (U87; Homo sapiens, U-87 MG): 6.1 µM
IC50 (U87-TxR): 8.52 ± 0.691 µM
IC50 (U87-TxR; Homo sapiens, U87-TxR): 8.5 µM
IC50 (LN-229; Homo sapiens, LN-229, 72 h): 24.7 µM
IC50 (LN-229; 72 h): 24.7 ± 1.03 µM
P-gp expression (P-gp [1]): increased P-gp expression
IC50 (MCF-7/Adr [2]): 40 µM
reversal of doxorubicin resistance (MCF-7/Adr [3]): 3.35 fold
oral bioavailability [4]: 14%
P-gp activity (Rho 123 intracellular accumulation) (P-gp [5]): did not show a similar activity

IC50 (U87-TxR cells; Homo sapiens, PTX alone, read-out: IC50 ± S.D. for PXT): 2.84 ± 0.358 µM
SMILES: CC(=O)O[C@H]1C(=O)[C@@]2(C)[C@H]([C@H](OC(=O)c3ccccc3)[C@]3(O)C[C@H](OC(=O)[C@H](O)[C@@H](NC(=O)c4ccccc4)c4ccccc4)C(C)=C1C3(C)C)[C@]1(OC(C)=O)CO[C@@H]1C[C@@H]2O [PTX, paclitaxel, reference compound]

IC50 (P-gp [5]; TQ values in nM (footnote a)): < 1 nM
SMILES: COc1cc2c(cc1OC)CN(CCc1ccc(NC(=O)c3cc(OC)c(OC)cc3NC(=O)c3cnc4ccccc4c3)cc1)CC2 [TQ, tariquidar, reference compound]

IC50 (U87): 3.04 ± 0.343 µM
IC50 (U87; Homo sapiens, U-87 MG): ~3 µM
IC50 (U87-TxR; Homo sapiens, U87-TxR): 3.42 ± 0.359 µM
IC50 (BT-138): 30.7 ± 4.75 µM
inhibition at 40 min (CYP3A4; pH 7.4, probe testosterone 100 μM (6β-hydroxylation), at a lower concentration (1–50 μM range)): -15%
interaction with CYP3A4 (CYP3A4; up to 50 μM): do not interact with CYP3A4
BMAX [6]: 78.00 ± 4.2
Kd [6]: 21.4 ± 4.5 µM
BMAX [7]: 96.69 ± 1.5
Kd at 30 min ([7]; alpha-1-acid glycoprotein (10 µM) in phosphate buffer): 9.28 ± 0.7 µM
P-gp activity (Rho 123 intracellular accumulation) (P-gp [5]): significant suppression of P-gp activity
IC50 (P-gp [5]): 3800 nM and 3750 nM
SMILES: CN1CCN(CCOC(=O)N(c2cccc(Br)c2)c2nc(SCCN3CCOCC3)nc3c2cnn3CC(Cl)c2ccccc2)CC1 (stereo not shown) [pro-Si306]
IC50 (LN-229; Homo sapiens, LN-229, 72 h): 3.07 ± 0.272 µM
Relative Reversal of PTX resistance (U87-TxR cells; 0.2 µM of the compound): 4.47 ***
Relative Reversal of PTX resistance (U87-TxR cells; 0.5 µM of the compound): 7.98
Relative Reversal of PTX resistance (U87-TxR cells; 0.5 µM of the compound, listed as Pro-Si306): 7.98 ***
solubility [8]: enhanced solubility
detection in plasma and brain [9]: detected neither into the plasma nor in the brain
